Laboratory results from PubChem BioAssay (NCI).
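Cells were grown in 96-well plates and exposed to each compound for 48 hours at five concentrations; endpoints were interpolated linearly between bracketing concentrations, or set to the highest concentration if not reached. TGI denotes the concentration required for complete inhibition of growth.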

Assays:
Test in all cases: inhibition of tumour cell growth, NCI panel, 48 h
[1] = test system: RXF-631 renal
[2] = test system: ACHN renal
[3] = test system: OVCAR-3 ovarian
[4] = test system: MOLT-4 leukemia
[5] = test system: HL-60(TB) leukemia
[6] = test system: HOP-18 NSCLC
[7] = test system: SF-295 CNS
[8] = test system: SW-620 colon
[9] = test system: HCT-116 colon
[10] = test system: 786-0 renal
[11] = test system: LOX IMVI melanoma
[12] = test system: U251 CNS
[13] = test system: KM12 colon
[14] = test system: HT29 colon
[15] = test system: RPMI-8226 leukemia
[16] = test system: A549 NSCLC
[17] = test system: COLO 205 colon
[18] = test system: HOP-62 NSCLC
[19] = test system: KM20L2 colon
[20] = test system: SF-268 CNS
[21] = test system: SK-MEL-28 melanoma
[22] = test system: CCRF-CEM leukemia
[23] = test system: EKVX NSCLC
[24] = test system: LXFL 529 NSCLC
[25] = test system: SK-OV-3 ovarian
[26] = test system: NCI-H23 lung
[27] = test system: NCI-H522 lung
[28] = test system: UACC-257 melanoma
[29] = test system: TK-10 renal
[30] = test system: RXF 393 renal
[31] = test system: XF 498 CNS
[32] = test system: OVCAR-5 ovarian
[33] = test system: CAKI-1 renal
[34] = test system: OVCAR-8 ovarian
[35] = test system: DMS 114 small cell lung
[36] = test system: MALME-3M melanoma
[37] = test system: DLD-1 colon
[38] = test system: SK-MEL-2 melanoma
[39] = test system: UACC-62 melanoma
[40] = test system: NCI-H460 lung
[41] = test system: HCC-2998 colon
[42] = test system: K-562 leukemia
[43] = test system: M19-MEL melanoma
[44] = test system: HOP-92 NSCLC
[45] = test system: DMS 273 small cell lung
[46] = test system: SNB-19 CNS
[47] = test system: NCI-H226 lung
[48] = test system: SR leukemia
[49] = test system: SN12C renal
[50] = test system: HCT-15 colon
[51] = test system: IGROV1 ovarian
[52] = test system: SF-539 CNS
[53] = test system: SK-MEL-5 melanoma
[54] = test system: SNB-78 CNS
[55] = test system: A498 renal
[56] = test system: SNB-75 CNS
[57] = test system: M14 melanoma
[58] = test system: OVCAR-4 ovarian
[59] = test system: UO-31 renal

COC(=O)CC(c1ccccc1)C1(c2ccccc2)SCCS1 (centres undefined)
TGI [1]: > 290 µM
TGI [2]: > 290 µM
TGI [3]: > 290 µM
TGI [4]: > 290 µM
TGI [5]: > 290 µM
TGI [6]: > 290 µM
TGI [7]: > 290 µM
TGI [8]: > 290 µM
TGI [9]: > 290 µM
TGI [10]: > 290 µM
TGI [11]: > 290 µM
TGI [12]: > 290 µM
TGI [13]: > 290 µM
TGI [14]: > 290 µM
TGI [15]: > 290 µM
TGI [16]: > 290 µM
TGI [17]: > 290 µM
TGI [18]: > 290 µM
TGI [19]: > 290 µM
TGI [20]: > 290 µM
TGI [21]: > 290 µM
TGI [22]: > 290 µM
TGI [23]: > 290 µM
TGI [24]: > 290 µM
TGI [25]: > 290 µM
TGI [26]: > 290 µM
TGI [27]: > 290 µM
TGI [28]: > 290 µM
TGI [29]: > 290 µM
TGI [30]: > 290 µM
TGI [31]: > 290 µM
TGI [32]: > 290 µM
TGI [33]: > 290 µM
TGI [34]: > 290 µM
TGI [35]: > 290 µM
TGI [36]: > 290 µM
TGI [37]: > 290 µM
TGI [38]: > 290 µM
TGI [39]: > 290 µM
TGI [40]: > 290 µM
TGI [41]: > 290 µM
TGI [42]: > 290 µM
TGI [43]: > 290 µM
TGI [44]: 187 µM
TGI [45]: > 290 µM
TGI [46]: > 290 µM
TGI [47]: > 290 µM
TGI [48]: > 290 µM
TGI [49]: > 290 µM
TGI [50]: > 290 µM
TGI [51]: > 290 µM
TGI [52]: > 290 µM
TGI [53]: > 290 µM

O=C(/C=C/c1ccc([N+](=O)[O-])cc1)c1ccc(NCc2nc3ccccc3[nH]2)cc1
TGI [1]: 19.7 µM
TGI [2]: 23 µM
TGI [54]: 29 µM
TGI [3]: 11.8 µM
TGI [4]: 10.2 µM
TGI [5]: 4.25 µM
TGI [6]: 31.3 µM
TGI [7]: 18.1 µM
TGI [8]: 6.19 µM
TGI [55]: 24.1 µM
TGI [10]: 10.8 µM
TGI [11]: 6.54 µM
TGI [12]: 3.23 µM
TGI [13]: 3.47 µM
TGI [14]: 12.3 µM
TGI [17]: 7.71 µM
TGI [18]: 26.7 µM
TGI [19]: 15.3 µM
TGI [20]: 26.6 µM
TGI [21]: 28 µM
TGI [22]: 6.16 µM
TGI [23]: 22.2 µM
TGI [24]: 8.61 µM
TGI [25]: 30.1 µM
TGI [26]: 15.3 µM
TGI [56]: 31.5 µM
TGI [27]: 11.9 µM
TGI [28]: 13.8 µM
TGI [29]: 19.9 µM
TGI [31]: 20.2 µM
TGI [32]: 26.3 µM
TGI [33]: 21.2 µM
TGI [57]: 24 µM
TGI [58]: 27.8 µM
TGI [34]: 12.9 µM
TGI [59]: 16.3 µM
TGI [35]: 7.44 µM
TGI [36]: 28.3 µM
TGI [37]: 15.7 µM
TGI [38]: 29.7 µM
TGI [39]: 26 µM
TGI [40]: 5.64 µM
TGI [41]: 6.38 µM
TGI [42]: 7.03 µM
TGI [43]: 15.3 µM
TGI [44]: 21.8 µM
TGI [45]: 13.6 µM
TGI [46]: 14.5 µM
TGI [48]: 8.15 µM
TGI [49]: 14.8 µM
TGI [50]: 11.8 µM
TGI [51]: 18.1 µM
TGI [52]: 8.08 µM
TGI [53]: 16.3 µM

C/C(=N/Nc1ccc([N+](=O)[O-])cc1[N+](=O)[O-])C(CC(C(=O)NCc1ccccc1)/C(C)=N\Nc1ccc([N+](=O)[O-])cc1[N+](=O)[O-])C(=O)NCc1ccccc1 (centres undefined)
TGI [1]: 20 µM
TGI [2]: 17.4 µM
TGI [54]: 31 µM
TGI [3]: 24.5 µM
TGI [6]: 9.48 µM
TGI [7]: 18.2 µM
TGI [8]: 24.4 µM
TGI [55]: 30.5 µM
TGI [9]: 16.4 µM
TGI [10]: 13.1 µM
TGI [12]: 11.1 µM
TGI [13]: 15 µM
TGI [14]: 18.5 µM
TGI [15]: 44.8 µM
TGI [16]: 14.6 µM
TGI [17]: 27.8 µM
TGI [18]: 13.9 µM
TGI [19]: 37.5 µM
TGI [20]: 16.5 µM
TGI [21]: 22.4 µM
TGI [23]: 32.9 µM
TGI [24]: 23.6 µM
TGI [25]: 29.1 µM
TGI [26]: 28.7 µM
TGI [56]: 12.4 µM
TGI [28]: 18 µM
TGI [30]: 15 µM
TGI [32]: 56.6 µM
TGI [33]: 20.4 µM
TGI [57]: 21.9 µM
TGI [58]: 5.59 µM
TGI [34]: 4.73 µM
TGI [59]: 14.2 µM
TGI [35]: 23.8 µM
TGI [36]: 30.8 µM
TGI [37]: 29.4 µM
TGI [38]: 23.9 µM
TGI [39]: 28.4 µM
TGI [40]: 17.5 µM
TGI [41]: 33.9 µM
TGI [43]: 23.9 µM
TGI [44]: 7.98 µM
TGI [45]: 20.4 µM
TGI [46]: 31 µM
TGI [47]: 25.8 µM
TGI [48]: 35.7 µM
TGI [49]: 15.1 µM
TGI [50]: 26 µM
TGI [51]: 31 µM
TGI [52]: 14.9 µM

CC(C)(C)c1cc2ccc(C(N)=O)cc2c(=O)[nH]1
TGI [1]: > 100 µM
TGI [2]: > 100 µM
TGI [54]: > 100 µM
TGI [3]: > 100 µM
TGI [4]: > 100 µM
TGI [5]: > 100 µM
TGI [6]: > 100 µM
TGI [7]: > 100 µM
TGI [8]: > 100 µM
TGI [55]: > 100 µM
TGI [9]: > 100 µM
TGI [10]: > 100 µM
TGI [11]: > 100 µM
TGI [12]: > 100 µM
TGI [13]: > 100 µM
TGI [14]: > 100 µM
TGI [16]: > 100 µM
TGI [17]: > 100 µM
TGI [18]: > 100 µM
TGI [19]: > 100 µM
TGI [20]: > 100 µM
TGI [21]: > 100 µM
TGI [22]: > 100 µM
TGI [23]: > 100 µM
TGI [24]: > 100 µM
TGI [25]: > 100 µM
TGI [26]: > 100 µM
TGI [56]: > 100 µM
TGI [27]: > 100 µM
TGI [28]: > 100 µM
TGI [29]: > 100 µM
TGI [30]: > 100 µM
TGI [32]: > 100 µM
TGI [33]: > 100 µM
TGI [57]: > 100 µM
TGI [58]: > 100 µM
TGI [34]: > 100 µM
TGI [59]: > 100 µM
TGI [35]: > 100 µM
TGI [36]: > 100 µM
TGI [37]: > 100 µM
TGI [38]: > 100 µM
TGI [39]: > 100 µM
TGI [40]: > 100 µM
TGI [41]: > 100 µM
TGI [42]: > 100 µM
TGI [43]: > 100 µM
TGI [44]: > 100 µM
TGI [45]: > 100 µM
TGI [46]: > 100 µM
TGI [47]: > 100 µM
TGI [48]: > 100 µM
TGI [49]: > 100 µM
TGI [50]: > 100 µM
TGI [51]: > 100 µM
TGI [52]: > 100 µM
TGI [53]: > 100 µM
